This assay deals with 11-7 cell line (NS2-5B) HCV replicon. The assay can be described thus: Replicon ELISA cell based assay, genotype 1b, 11-7 cell line (NS2-5B). Set-up: species or system HCV genotype 1b. The following applies: Hepatitis C virus; 11-7 cell line (NS2-5B) used instead of the 5-15 cell line. Here is the method:
Replicon ELISA Cell Based Assay
100 μL of medium containing 10% FCS were added to each well of clear, flat-bottomed 96 well microplates, excepting wells in the top row. Test compound was diluted in assay medium to twice the final required starting concentration from a 40 mM stock solution in DMSO. 200 μL of the starting dilution were introduced into two wells each in the top row and doubling dilutions made down the plate by the sequential transfer of 100 μL aliquots with thorough mixing in the wells; the final 100 μL were discarded. The two bottom rows were not used for compound dilutions. […]
Following incubation, the assay medium was aspirated from the plates. […] The reaction was stopped by the addition of 25 μL per well of 2 M sulphuric acid and the plates were read at 490 nm on a Fluostar Optima spectrophotometer. […]
The absorbance values from all compound-free wells that had received both primary and secondary antibodies were averaged to obtain a positive control value. The mean absorbance value from the compound-free wells that had not received the primary antibody was used to provide the negative (background) control value. The readings from the duplicate wells at each compound concentration were averaged and, after the subtraction of the mean background from all values, were expressed as a percentage of the positive control signal. […]

As usually defined, the IC50 is the point on the concentration scale where inhibition reaches its midpoint. Higher therefore signals weaker potency in that assay. For the compound `COC[C@H]1C[C@@](CC(C)C)(C(=O)O)N(C(=O)c2ccc(C(C)(C)C)c(OC)c2)[C@H]1c1ncc(C)s1` (racemic) [Compound C, rel-(2S,4S,5R)-2-isobutyl-1-(3-methoxy-4-tert-butylbenzoyl)-4-methoxymethyl-5-(5-methyl-1,3-thiazol-2-yl)pyrrolidine-2-carboxylic acid, reference compound], the IC50 lay within 0.15 to 10 µM.
